Ends that are not written are not given here.
Columns and labels:
HeLa cells = experiment: Mitochondrial PTP opening, calcein AM and cobalt ions; format: cell-based, human; settings: calcein AM 1 μM and cobalt ions 2 mM
Method: Mitochondria are known to open permeability transition pores (PTP) to allow cytosolic calcium influx. The observation that eMTDΔ4 (SEQ ID NO: 2) migrates to mitochondria and induces cytosolic calcium influx led to investigating the association of the action of eMTDΔ4 (SEQ ID NO: 2) with PTP. To this end, PTP opening was monitored using calcein AM and cobalt ions.
In brief, HeLa cells were grown on a Lab-Tek chamber glass slide one day before the experiment. Immediately before the experiment, the cells were stained with 1 μM of calcein AM and 2 mM of cobalt ions for 20 min and then with 0.1 μM of MitoTracker Red for 2 min. When PTP is opened, mitochondrial calcein AM meets cobalt ions so that the fluorescence of calcein AM is quenched.

HeLa = experiment: MTS assay, relative cell viability, HeLa; format: cell-based, human
Method: Individual cell lines (HeLa, CT26, and B16F10) were purchased from the Korean Cell Line Bank. Dulbecco's modified Eagle's medium (DMEM), trypsin-EDTA, fetal bovine serum (FBS), and Hank's balanced salt solution (HBSS) were products from Gibco (Thermo Fisher).
Each of the cell lines was cultured in DMEM supplemented with 10% FBS in an incubator maintained at 37° C. and 5% 002.
For use in assaying the peptides eMTD (SEQ ID NO: 1) and eMTDΔ4 (SEQ ID NO: 2) synthesized in Example 1 for activity of inducing cell death, the cell line HeLa was grown to about 90% confluency in 96-well plates. The cells were washed once with HBSS buffer before treatment with the peptides of the present disclosure eMTD (SEQ ID NO: 1) and eMTDΔ4 (SEQ ID NO: 2) at concentrations of 0, 20, and 40 for one hour. Thereafter, the cells were incubated with an MTS assay agent (Promega) for one hour, followed by reading absorbance to calculate relative viability of cells.
Examination was made to see whether the peptide has the activity of inducing cell death in other cancer cell lines. In this regard, the cancer cell lines HeLa, CT26, and B16F10 were treated with eMTDΔ4 (SEQ ID NO: 2) at concentrations of 0, 20, and 40 μM.

Question: KLNFRQKLLNLISKLF [eMTDΔ4] was tested. Which “mitochondrial PTP opening (calcein AM fluorescence)” value (HeLa cells) did it give?
Answer: fluorescence of mitochondrial calcein AM was quenched

Question: What about the “Viability (%)” value (HeLa; 20 μM, Table 4) of the same sequence?
Answer: 11%

Question: What about the “Viability (%)” value (HeLa; 20 μM, one hour treatment, Table 3) of the same sequence?
Answer: 53%

Question: And the “Viability (%)” value (HeLa; 40 μM, one hour treatment, Table 3)?
Answer: 40%

Question: What about the “cell death activity (in words)” value (HeLa; FIG. 1 and Table 3) of the same sequence?
Answer: potent cell death activity

Question: And the “induction of cell death (in words)” value (HeLa; FIG. 3 and Table 4)?
Answer: induce cell death

— patent US11248024B2, “Noxa-derived, cell death-inducing peptide eMTD” (INDUSTRY-ACADEMIC COOPERATION FOUNDATION, CHOSUN UNIVERSITY, priority 2019, dated 2022)
